Results taken from patent EP0121764B1, “Polypeptides” (F. HOFFMANN-LA ROCHE AG, priority 1983, dated 1990).
No end group written: not given here.

Key:
[1] = synthetically prepared peptides; factor relative to GRF(1-40)-OH; cited from earlier work
[2] = system: in Gewebekultur gezüchtete Zellen von Rattenhypophysen; assay: Growth hormone release from cultured rat pituitary cells (RIA for rat growth hormone); type: cell-based, Sprague-Dawley-Ratten
Description: Die biologische Aktivität von (leu^27)-GRF(1―44)-OH wurde mit derjenigen von natürlichem GRF(1―44)-NH2 verglichen, das aus einem Pankreastumor eines an Akromegalie leidenden Patienten isoliert wurde (Salk Institute Standard hp-GRF-NH2(NL-A-10)). Der Test auf biologische Aktivität, bei dem die Fähigkeit gemessen wird, in Gewebekultur gezüchtete Zellen von Rattenhypophysen zur Wachstumshormonproduktion zu stimulieren, wurde in der folgenden Weise durchgeführt:
Die Hypophysen-Vorderlappen von 30-40 männlichen Sprague-Dawley-Ratten (175 g) wurden dreimal mit sterilem Hepes-Puffer (pH 7,5) gewaschen und bei 37°C in 20-30 ml Hepes-Puffer (0,025 m, pH 7,35), enthaltend Kollagenase (4 mg/ml) und Dispase (2 mg/ml), dispergiert. Nach 100-110 minütiger Behandlung mit einem Vortex-Mixer und Behandlung mit Pasteur-Pipette, wurden die dispergierten Zellen durch Zentrifugieren (4 Minuten, 150xg) abgetrennt und während 10 Minuten in Hepes-Puffer, enthaltend 8 pg/ml Neuraminidase und 200 pg/ml Ethylendiamintetraessigsäure-dinatriumsalz, pH 7,35, resuspendiert. Die Zellen wurden zweimal mit folgendem Medium gewaschen: F-12/DMEM/BGjb (6:3:1) (Gibco: 430―1700/430―1600/320―2591) mit 2 g/I Rinderserumalbumin (BSA), 2x38 g/I Hepes und 50 mg/I Gentamycin und auf Mikrotiterplatten aufgebracht (1,5x10^5 Zellen/ml). Dem Medium in den einzelnen Löchern wurde entweder (leu^27)-GRF(1―44)-OH oder natürliches GRF(1-44)-NH2 in solchen Mengen zugesetzt, dass sich folgende Konzentrationen ergaben: 3.1, 6.3, 12.5, 25.0, 50.0, 100.0 und 200.0 fMol/ml. Die Kontrollen wurden nicht supplementiert. Das Aufbringen mit diesem Medium erfolgte unter Zusatz von 2% fötalem Kälberserum, um eine schnelle Fixierung der Zellen zu erreichen. Am vierten Tag wurden die Zellen zweimal mit dem oben definierten Medium (ohne Kälberserum) gewaschen. Schliesslich wurden jedem Loch 900 µl des Mediums sowie 100 µl Medium mit der Testsubstanz zugesetzt (jeweils dreifach). Nach dreistündiger Inkubation wurde der Überstand gesammelt und soweit verdünnt, dass Radioimmunoassays (RIAs) auf Ratten-Wachstumshormon durchgeführt werden konnten. […]

Substance	Aktivitäten ähnlich wie GRF(1-40)-OH (innerhalb eines Faktors) [1]	relative Aktivität gegenüber dem Standard des Salk Instituts ([2]; computer analysis of the table data, standard hp-GRF-NH2(NL-A-10) = natural GRF(1-44)-NH2, 3.1-200.0 fMol/ml, 3 h incubation)	Faktor, um den die ausgeschüttete Menge an Wachstumshormon grösser ist, bezogen auf (leu^27)-GRF-OH ([2]; in vitro)	Aktivität verglichen mit GRF(1-44)-NH2 ([2]; stimulation of growth hormone production, 3.1-200.0 fMol/ml, 3 h incubation)
GRF(1-39)-NH2: synthetic GRF fragment, first 39 amino acids, amidated (Rivier et al.) (YADAIFTNSYRKVLGQLSARKLLQDIMSRQQGESNQERG-NH2; UniProt P01286 32-70, looked up, fragment)	≤ 2	–	–	–
GRF(1-40)-NH2: synthetic GRF fragment, first 40 amino acids, amidated (Rivier et al.) (YADAIFTNSYRKVLGQLSARKLLQDIMSRQQGESNQERGA-NH2; UniProt P01286 32-71, looked up, fragment)	≤ 2	–	–	–
GRF(1-32)-NH2: synthetic GRF fragment, first 32 amino acids, amidated (Rivier et al.) (YADAIFTNSYRKVLGQLSARKLLQDIMSRQQG-NH2; UniProt P01286 32-63, looked up, fragment)	≤ 2	–	–	–
GRF(1-29)-NH2: synthetic GRF fragment, first 29 amino acids, amidated (Rivier et al.) (YADAIFTNSYRKVLGQLSARKLLQDIMSR-NH2; UniProt P01286 32-60, looked up, fragment)	≤ 2	–	–	–
(leu^27)-GRF(1―44)-OH (YADAIFTNSYRKVLGQLSARKLLQDILSRQQGESNQERGARARL-OH; UniProt P01286 32-75, looked up, variant M27L) [(Leu^27)-GRF(1-44)-OH]	–	1,063	≥ 10	gleich oder leicht höher
